According to US10543196B2, “Oral dosage forms of bendamustine” (priority 2008, dated 2020):
Counter-ions that a name gives are not always drawn.

Tests used:
[1] = B6D2F1-mice; cited from earlier work
[2] = Solubility of bendamustine hydrochloride; type: physicochemical
Source text: Therefore it is not surprising that the oral bendamustine compositions, as investigated by Preiss et al. and Weber gave rise to relatively poor bioavailability results and a large inter-individual variability.

[3] = patients, oral doses of 250-350 mg, cited from earlier work
[4] = Stability of an aqueous solution of bendamustine versus pH; type: physicochemical; settings: pH>5

Structure (SMILES) | Bioavailability (absorption from the gastro-intestinal tract) [1] | Solubility in a range of organic solvents [2] | Solubility in ethanol and methanol [2] | Solubility in water ([2]; pH of 2.0) | Time at which maximal plasma levels were detectable after oral administration ([3]; capsules of 25 mg) [h] | Hydrolytic decomposition in aqueous solution [4] | Oral bioavailability, range ([3]; capsules)
Cn1c(CCCC(=O)O)nc2cc(N(CCCl)CCCl)ccc21 [bendamustine hydrochloride] | about 40% | slightly or very slightly soluble | good solubility | sparingly soluble | ≤ 1 |  | 
Cn1c(CCCC(=O)O)nc2cc(N(CCCl)CCCl)ccc21 [bendamustine, 4-[5-[bis(2-chloroethyl)amino]-1-methylbenzimidazo-2-yl]butanoic acid] |  |  |  |  |  | the decomposition proceeds rapidly | 25-94%
